From patent US4643994A, “Novel organic trithio oxides and method for the preparation thereof” (The Research Foundation of State University of New York, priority 1984, dated 1987)
Like-named read-outs stand apart in the source and are kept apart here.

Tests used:
[1] = system: blood platelets (platelet rich, citrated, human blood plasma); test: inhibition of platelet aggregation in platelet rich, citrated human blood plasma (aggregometer), agonist ADP or collagen; assay type: cell-based; settings: for IC50: agonist COLLAGEN (2 μg), read-out: ID50 (the source's name)
Text: (§1) Various substances are known to cause blood platelets to aggregate which in turn can result in blood clots in the blood circulatory system of living animals. Certain other compounds are known to prevent blood platelet aggregation and accordingly are known as antithrombotic agents, while other compounds prevent clotting of aggregated platelets and are called anticoagulants. Both are used in the treatment of phlebitis, stroke, coronary thrombosis, and arteriosclerosis. In a typical test to determine antithrombotic activity, the suspected antithrombotic substance is mixed with a suspension of blood platelets, incubated for a few minutes, and then the suspension is treated with a known amount of a known agonist (agents inducing aggregation). The effectiveness of the suspected antithrombotic is compared to a control which has been treated with the agonist but which has not been treated with the antithrombotic and a quantitative measure of effectiveness is determined by ascertaining the concentration of suspected antithromobotic necessary to reduce by 50% the extent of platelet aggregation compared to the control. This measurement is termed the ID50 of the antithrombotic. Typical agonists include collagen and ADP (adenosine diphosphate).
Platelet rich, citrated, human blood plasma (250,000 platelets/μL) was prepared and divided into 0.45 ml aliquots for use in determining ID50 levels of the subject compounds. The aliquots were treated with various quantities of the compounds of the instant invention and thereafter were preincubated by maintaining in an aggregometer curvette for two (2) minutes at 37° C. with stirring (950 RPM). Control aliquots free of antithrombotic component, were maintained and subjected to each of the processing steps. Each aliquot was then treated with an agonist in this instance being an appropriate amount of ADP (10 μmole) or collagen (2 μg). Aggregation in each aliquot was monitored for a period of 3-5 minutes and percent aggregation was quantified by a dual channel aggregometer which ascertained percent aggregation by comparision against a control of light transmittance through the sample.

[2] = system: blood platelets (platelet rich, citrated, human blood plasma); test: as above; assay type: cell-based; settings: for IC50: agonist ADP (10 μg), read-out: ID50 (the source's name)
S. Aureus bacteria = test: antibacterial activity against S. Aureus; assay type: cell-based
blood platelets = test: antithrombotic activity in combination with other known antithrombotics
Text: as §1

`C=CCSSCCC[S+]([O-])CC=C` (stereo not shown) [Aliquot 3] gave an IC50 ([1]; Homo sapiens, Platelet) greater than 400 µM and an IC50 ([2]; Homo sapiens, Platelet) greater than 400 µM.
`C=CCSS/C=C/C[S+](C)[O-]` (stereo not shown) [Aliquot 4] showed an IC50 ([1]; Homo sapiens, Platelet) of 374 µM and an IC50 ([2]; Homo sapiens, Platelet) greater than 400 µM.
For `CSS/C=C/C[S+](C)[O-]` (stereo not shown) [Aliquot 5, (E) 2,3,7-trithiaocta-4-ene 7-oxide], the IC50 ([1]; Homo sapiens, Platelet) was 332 µM and the IC50 ([2]; Homo sapiens, Platelet) was greater than 400 µM.
`C=CCS(=O)(=O)C/C=C/SS(=O)(=O)CC=C` [Aliquot 8, (E) 4,5,9-trithiadodeca-1,6,11-triene 4,4,9,9-tetraoxide] was tested, and the “effect on platelet aggregation” value ([2]; at levels of 40 μg/ml of ADP) was “appears to act as an agonist”.
In the case of `C=CCS(=O)(=O)C/C=C/SS(=O)(=O)CC=C` [Aliquot 8], the “ID50 columns: result in words” value ([1]; printed across the ADP (10 μg) and COLLAGEN (2 μg) columns) is reported as “Causes Aggregation”.
`C=CCSS/C=C/C[S+]([O-])CCCC(=O)OCC` (stereo not shown) [Aliquot 9] gave an IC50 ([1]; Homo sapiens, Platelet) of 388 µM and an IC50 ([2]; Homo sapiens, Platelet) of 388 µM.
`C=CCS(=O)(=O)C/C=C/SSCCC` [Aliquot 10] gave an IC50 ([2]; Homo sapiens, Platelet) of 210 µM.
In the case of `C=CCS(=O)(=O)C/C=C/SSC/C=C/C` [Aliquot 11], the IC50 ([2]; Homo sapiens, Platelet) is reported as 208 µM.
Work on `C=CCS(=O)(=O)C/C=C/SSCc1ccccc1` [Aliquot 12] yielded an IC50 ([2]; Homo sapiens, Platelet) of 204 µM.
For `C=CCS(=O)(=O)C/C=C/SSC/C=C\CCC` [Aliquot 13], the IC50 ([2]; Homo sapiens, Platelet) was 280 µM.
Work on `C=CCS(=O)(=O)C/C=C/SSC/C=C/CCC` [Aliquot 14] yielded an IC50 ([2]; Homo sapiens, Platelet) greater than 400 µM.
For `C=CC[S+]([O-])CC=CSS(=O)(=O)CC=C` (stereo not shown) [Example 5, (E,Z)-4,5,9-trithiadodeca-1,6,11-triene 4,4,9-trioxide], the “growth of S. Aureus bacteria” value (S. Aureus bacteria; 0.25 m. molar concentration) was “growth of the bacteria was inhibited” and the “killing of S. Aureus bacteria” value (S. Aureus bacteria; 1.0 m. molar concentration) was “killing of the bacteria”.
In the case of `COc1ccc2c(c1)c(CC(=O)O)c(C)n2C(=O)c1ccc(Cl)cc1` [Indomethacin, indomethacin], the “antithrombotic activity when combined with various compounds of the invention” value (blood platelets) is reported as “particularly enhanced antithrombotic activity”.
For `CCCCC[C@H](O)/C=C/[C@@H]1[C@H]2C/C(=C/CCCC(=O)O)O[C@H]2C[C@H]1O` [prostacyclin], the “antithrombotic activity when combined with various compounds of the invention” value (blood platelets) was “particularly enhanced antithrombotic activity”.
“(E)-4,5,9-trithiadodeca-6,11-diene 9,9 dioxide [Aliquot 10]” gave an IC50 [2] of 182 µM.
For “(E,Z)-4,5,9-trithiadodeca-1,6,11-triene 9,9dioxide [Example 2]”, the IC50 [1] was 214 µM and the IC50 [2] was 209 µM.
